Experimental data taken from patent US8501446B2 (Vertex Pharmaceuticals Incorporated, priority 2004, dated 2013).

Key:
Format in all cases: biochemical
JAK2 = JAK2 (Homo sapiens, UniProt O60674); assay: JAK2 inhibition assay (radioactive enzyme assay, as for JAK3); conditions: average Ki if more than one value determined
Outline: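 Both kinases: poly(Glu)4Tyr substrate in 100 mM HEPES pH 7.4, 10 mM MgCl2, 1 mM DTT. Run 20 min at 25° C, TCA stop, filter-bound ³³P counted, Ki(app) fitted after background subtraction. JAK3: final [γ-³³P]ATP 5 μM, enzyme added as 2 nM solution. JAK2: final poly(Glu)4Tyr 15 μM, final ATP 12 μM.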

ROCK I (AA 6-553) = target: T1, ROCK I (AA 6-553) (Homo sapiens, UniProt Q13464); assay: ROCK inhibition assay, standard coupled enzyme system ("Enzyme"); conditions: enzyme-linked assay
T1 construct: ROCK I (AA 6-553)
Outline: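 ROCK I (AA 6-553) at 45 nM and 30 °C with 45 μM ATP and 200 μM peptide, in 100 mM HEPES pH 7.5, 10 mM MgCl2, 25 mM NaCl, 2 mM DTT, 1.5% DMSO. ADP output read by a PK/LDH coupled system: 2.5 mM PEP, 350 μM NADH, 30 μg/ml PK, 10 μg/ml LDH.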

[1] = target: T2, full length Aurora-A (AA 1-403) (Homo sapiens, UniProt O14965); assay: Aurora-A inhibition assay, standard coupled enzyme system; conditions: average Ki if more than one value determined
T2 construct: full length Aurora-A (AA 1-403)
T2 sequence (O14965 1-403): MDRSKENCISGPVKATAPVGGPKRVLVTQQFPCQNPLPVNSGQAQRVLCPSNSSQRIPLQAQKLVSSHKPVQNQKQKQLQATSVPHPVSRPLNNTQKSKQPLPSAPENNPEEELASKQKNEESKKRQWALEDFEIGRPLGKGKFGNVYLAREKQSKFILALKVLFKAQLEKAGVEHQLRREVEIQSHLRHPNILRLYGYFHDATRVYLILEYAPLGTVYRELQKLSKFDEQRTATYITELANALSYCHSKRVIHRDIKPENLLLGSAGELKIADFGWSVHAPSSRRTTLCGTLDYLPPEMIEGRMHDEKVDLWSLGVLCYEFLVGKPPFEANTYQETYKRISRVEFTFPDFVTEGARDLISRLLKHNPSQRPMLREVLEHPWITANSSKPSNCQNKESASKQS

Aurora-C = target: T3, Aurora-C (Homo sapiens, UniProt Q9UQB9); assay: Aurora-C inhibition assay, coupled enzyme system as for Aurora-A; conditions: average Ki if more than one value determined
T3 sequence (Q9UQB9 1-309): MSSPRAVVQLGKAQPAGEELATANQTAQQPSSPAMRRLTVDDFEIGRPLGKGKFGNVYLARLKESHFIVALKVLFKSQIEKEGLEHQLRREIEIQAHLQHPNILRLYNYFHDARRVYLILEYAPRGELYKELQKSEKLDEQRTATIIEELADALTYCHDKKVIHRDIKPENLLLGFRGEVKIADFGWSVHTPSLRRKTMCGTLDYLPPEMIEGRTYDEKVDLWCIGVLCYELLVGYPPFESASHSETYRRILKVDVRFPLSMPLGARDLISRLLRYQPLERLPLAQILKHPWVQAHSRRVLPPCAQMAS
Protocol: Compounds were screened for their ability to inhibit full length Aurora-A (AA 1-403) activity using a standard coupled enzyme system (Fox et al., Protein Sci. 7, pp. 2249 (1998)). Reactions were carried out in a solution containing 100 mM HEPES (pH 7.5), 10 mM MgCl2, 25 mM NaCl, 300 μM NADH, 1 mM DTT and 3% DMSO. Final substrate concentrations in the assay were 200 μM ATP (Sigma Chemicals, St Louis, Mo.) and 800 μM peptide (LRRASLG, American Peptide, Sunnyvale, Calif.). Reactions were carried out at 30° C. and 35 nM Aurora-A. Final concentrations of the components of the coupled enzyme system were 2.5 mM phosphoenolpyruvate, 200 μM NADH, 60 μg/ml pyruvate kinase and 20 μg/ml lactate dehydrogenase.
An assay stock buffer solution was prepared containing all of the reagents listed above with the exception of ATP and the test compound of interest. The assay stock buffer solution (60 μl) was incubated in a 96 well plate with 2 μl of the test compound of interest at final concentrations spanning 0.002 μM to 30 μM at 30° C. for 10 min. Typically, a 12 point titration was conducted by preparing serial dilutions (from 1 mM compound stocks) with DMSO of the test compounds in daughter plates. The reaction was initiated by the addition of 5 μl of ATP (final concentration 200 μM). Rates of reaction were obtained using a Molecular Devices Spectramax plate reader (Sunnyvale, Calif.) over 10 min at 30° C. The Ki values were determined from the rate data as a function of inhibitor concentration using computerized nonlinear regression (Prism 3.0, Graphpad Software, San Diego, Calif.). Aurora-C activity was screened in a similar manner using Aurora-C protein. Aurora-B activity was screened using a radioactive assay, such as described in Examples 1 and 2, but using Aurora-B protein.

Aurora-B = Aurora-B (Homo sapiens, UniProt Q96GD4); assay: Aurora-B inhibition assay, radioactive assay; conditions: average Ki if more than one value determined
Outline: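 Aurora-B protein substituted into the standard radioactive kinase format: reaction quenched with TCA, product captured on glass fiber filters and 33P counted. Ki(app) derived by fitting background-corrected counts against inhibitor concentration.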

Aurora-B, sequence (Q96GD4 whole entry): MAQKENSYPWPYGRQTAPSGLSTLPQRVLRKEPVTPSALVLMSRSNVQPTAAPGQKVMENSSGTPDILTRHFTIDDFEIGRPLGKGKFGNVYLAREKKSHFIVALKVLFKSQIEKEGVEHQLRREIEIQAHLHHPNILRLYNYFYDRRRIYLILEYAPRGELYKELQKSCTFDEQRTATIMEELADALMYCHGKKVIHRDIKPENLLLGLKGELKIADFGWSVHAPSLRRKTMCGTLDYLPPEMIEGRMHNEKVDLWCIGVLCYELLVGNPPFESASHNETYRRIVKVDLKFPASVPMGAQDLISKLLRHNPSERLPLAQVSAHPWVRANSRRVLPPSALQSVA
JAK2, sequence (O60674 whole entry, species assumed): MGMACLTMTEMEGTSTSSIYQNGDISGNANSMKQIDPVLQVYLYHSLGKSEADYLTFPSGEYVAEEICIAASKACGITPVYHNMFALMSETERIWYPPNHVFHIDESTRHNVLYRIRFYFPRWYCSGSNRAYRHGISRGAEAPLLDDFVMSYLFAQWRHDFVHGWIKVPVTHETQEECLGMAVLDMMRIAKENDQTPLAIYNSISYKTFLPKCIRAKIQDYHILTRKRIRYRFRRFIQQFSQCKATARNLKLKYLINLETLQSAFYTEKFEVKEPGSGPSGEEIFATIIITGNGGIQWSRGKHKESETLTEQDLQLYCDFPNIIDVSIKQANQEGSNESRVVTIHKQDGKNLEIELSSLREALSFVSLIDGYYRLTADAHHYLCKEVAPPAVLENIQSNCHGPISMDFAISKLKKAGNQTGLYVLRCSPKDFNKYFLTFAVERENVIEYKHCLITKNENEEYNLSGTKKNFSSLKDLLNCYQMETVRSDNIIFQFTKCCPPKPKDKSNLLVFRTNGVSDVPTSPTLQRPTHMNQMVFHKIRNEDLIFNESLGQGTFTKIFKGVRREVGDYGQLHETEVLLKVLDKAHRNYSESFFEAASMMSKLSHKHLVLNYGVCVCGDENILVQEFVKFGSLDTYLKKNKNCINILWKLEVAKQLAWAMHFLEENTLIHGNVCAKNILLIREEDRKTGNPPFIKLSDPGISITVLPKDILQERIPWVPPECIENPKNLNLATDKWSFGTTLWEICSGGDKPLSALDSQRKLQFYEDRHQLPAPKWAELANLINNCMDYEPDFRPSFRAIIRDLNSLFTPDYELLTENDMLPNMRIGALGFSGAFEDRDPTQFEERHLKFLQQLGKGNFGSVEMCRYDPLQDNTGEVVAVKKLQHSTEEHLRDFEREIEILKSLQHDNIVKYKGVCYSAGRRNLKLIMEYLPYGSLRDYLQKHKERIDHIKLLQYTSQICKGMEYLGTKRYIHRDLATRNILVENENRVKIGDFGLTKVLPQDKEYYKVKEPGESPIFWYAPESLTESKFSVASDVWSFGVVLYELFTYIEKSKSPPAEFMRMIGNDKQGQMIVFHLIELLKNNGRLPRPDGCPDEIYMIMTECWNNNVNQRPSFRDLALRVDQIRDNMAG
T1 sequence (Q13464 6-553, species assumed): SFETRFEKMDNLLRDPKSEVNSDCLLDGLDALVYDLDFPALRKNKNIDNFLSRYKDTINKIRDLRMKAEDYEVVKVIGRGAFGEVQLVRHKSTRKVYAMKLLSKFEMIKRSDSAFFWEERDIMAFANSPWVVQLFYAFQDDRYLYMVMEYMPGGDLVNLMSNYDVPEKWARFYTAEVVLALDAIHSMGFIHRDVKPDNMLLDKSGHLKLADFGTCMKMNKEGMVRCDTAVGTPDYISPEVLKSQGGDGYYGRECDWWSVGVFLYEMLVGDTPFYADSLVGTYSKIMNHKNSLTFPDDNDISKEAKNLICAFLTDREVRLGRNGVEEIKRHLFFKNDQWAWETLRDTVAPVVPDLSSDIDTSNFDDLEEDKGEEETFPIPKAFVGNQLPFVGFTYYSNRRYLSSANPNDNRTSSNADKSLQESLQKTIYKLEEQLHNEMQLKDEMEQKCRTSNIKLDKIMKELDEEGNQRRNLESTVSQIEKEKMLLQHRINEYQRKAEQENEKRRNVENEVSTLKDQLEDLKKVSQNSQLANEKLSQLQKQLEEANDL

Row | SMILES | Ki (JAK2) [nM] | Ki (ROCK I (AA 6-553)) [nM] | Ki [1] [nM] | Ki (Aurora-C) [nM] | Ki (Aurora-B) [nM]
1 | CCc1cnc(-c2c[nH]c3ncc(Cl)cc23)nc1N[C@@H](C)c1ccc(F)cc1 [Compound 386] | < 500 | 500 to 5000 | < 500 | < 500 | < 500
2 | CNC(=O)[C@H](CO)Nc1nc(-c2c[nH]c3ncc(Cl)cc23)ncc1F [Compound 387] | – | 500 to 5000 | < 500 | < 500 | < 500
3 | C[C@H](Nc1nc(-c2c[nH]c3ncc(Cl)cc23)ncc1C#N)C(=O)NCC(F)(F)F [Compound 420] | – | 500 to 5000 | < 500 | < 500 | < 500
4 | O=C(CNc1nc(-c2c[nH]c3ncc(Cl)cc23)nc2ccccc12)NCC(F)(F)F [Compound 427] | – | 500 to 5000 | < 500 | 500 to 5000 | 500 to 5000
5 | CC(C)c1cnc(-c2c[nH]c3ncc(Cl)cc23)nc1N[C@@H](C)C(=O)NCC(F)(F)F [Compound 429] | – | 500 to 5000 | < 500 | 500 to 5000 | 500 to 5000
6 | CNC(=O)CNc1nc(-c2c[nH]c3ncc(Cl)cc23)ncc1C(C)C [Compound 430] | – | 500 to 5000 | < 500 | 500 to 5000 | 500 to 5000
7 | C[C@H](Nc1nc(-c2c[nH]c3ncc(Cl)cc23)ncc1F)C(=O)NCCN [Compound 431] | – | 500 to 5000 | < 500 | < 500 | < 500
8 | C[C@H](Nc1nc(-c2c[nH]c3ncc(Cl)cc23)ncc1F)C(=O)NCCn1cccc1 [Compound 443] | < 500 | 500 to 5000 | < 500 | < 500 | < 500
9 | CC(=O)NCCNC(=O)[C@H](C)Nc1nc(-c2c[nH]c3ncc(Cl)cc23)ncc1F [Compound 444] | 500 to 5000 | 500 to 5000 | < 500 | < 500 | < 500
10 | C[C@H](Nc1nc(-c2c[nH]c3ncc(Cl)cc23)ncc1F)C(=O)NCCc1ccc(S(N)(=O)=O)cc1 [Compound 446] | 500 to 5000 | 500 to 5000 | < 500 | < 500 | < 500
11 | CCSCCNC(=O)[C@H](C)Nc1nc(-c2c[nH]c3ncc(Cl)cc23)ncc1F [Compound 447] | – | 500 to 5000 | < 500 | 500 to 5000 | 500 to 5000
12 | Cc1cc(N[C@@H](C)C(=O)NCCNS(C)(=O)=O)nc(-c2c[nH]c3ncc(Cl)cc23)n1 [Compound 450] | 500 to 5000 | 500 to 5000 | < 500 | < 500 | < 500
13 | CNCCNC(=O)[C@H](C)Nc1nc(-c2c[nH]c3ncc(Cl)cc23)ncc1F [Compound 452] | – | 500 to 5000 | < 500 | < 500 | < 500
14 | CC(C)S(=O)(=O)NCCNC(=O)[C@H](C)Nc1nc(-c2c[nH]c3ncc(Cl)cc23)ncc1F [Compound 454] | – | 500 to 5000 | < 500 | 500 to 5000 | 500 to 5000
